Results: US12144874B2, “Synthesis and composition of photodynamic therapeutic agents for the targeted treatment of cancer” (On Target Laboratories, LLC, priority 2015, dated 2024)
Entries after “also recorded” stand apart in the source; their conditions may differ. Where two headings read alike, the source gives them in different places. Values belong to the molecule of their own block, whether it stands above or below them.

Tests used:
subcutaneous KB tumor = experiment: In vivo PDT efficacy on growth of subcutaneous KB tumor xenograft in nude mice; details: 50 nmol dose, laser 75 mW/cm^2, 137 J/cm^2, 38 min, 3 h after injection
Procedure: The growth of the tumor was monitored (images were taken) and tumor volume was measured using caliper.
In the following examples, the in vivo efficacy of the compounds is determined using KB tumor cell xenograft in nude mice. In these studies, KB cells were implanted subcutaneously and growth of the tumors was monitored. […] Moreover, once tumors grow to […], the compounds were injected via tail vein. […] In vivo efficacy of BPheid-a was evaluated by monitoring reduction of tumor volume.
KB cells that overexpressed folate receptor were implanted subcutaneously into female nude mice and allowed to grow to ˜50 mm^3 prior to initiation of treatment with 50 nmol of BPheid-a (1). […] In vivo efficacy of BPheid-a was evaluated by monitoring reduction of tumor volume.

KB cells = details: for IC50: Table 3, nucleus-targeted modified PDT agents
[1] = Table 2, mitochondrial-targeted modified PDT agents, free drugs in DMSO, 2 h incubation, laser 32 min, then 24 h
[2] = free drugs in DMSO, 2 h incubation, laser 32 min, then 24 h
[3] = Table 8, folate-targeted releasable visudyne conjugates

Structure (SMILES): CC[C@H]1c2cc3[nH]c4c(c3C)C(=O)C(C(=O)OC)c4c3nc(cc4[nH]c(cc(n2)[C@@H]1C)c(C(C)=O)c4C)[C@@H](C)[C@@H]3CCC(=O)NNC(=O)OCCSSC[C@H](NC(=O)CCOCCOCCOCCOCCOCCOCCNC(=O)CC[C@H](NC(=O)c1ccc(NCc2cnc3nc(N)[nH]c(=O)c3n2)cc1)C(=O)O)C(=O)O (single isomer, unassigned) [Compound 76b]
Effect on growth of subcutaneous KB tumor, in words (subcutaneous KB tumor): less active in mice as compared to 76a and 76c; also recorded: completely cured with no recurrence during the monitored time (3 weeks) | EC50 (KB cells; 2 h): 0.32 µM

Structure (SMILES): CC[C@H]1c2cc3[nH]c4c(c3C)C(=O)C(C(=O)OC)c4c3nc(cc4[nH]c(cc(n2)[C@@H]1C)c(C(C)=O)c4C)[C@@H](C)[C@@H]3CCC(=O)NNC(=O)OCCSSC[C@H](NC(=O)CCOCCOCCOCCOCCOCCOCCOCCOCCNC(=O)CC[C@H](NC(=O)c1ccc(NCc2cnc3nc(N)[nH]c(=O)c3n2)cc1)C(=O)O)C(=O)O (single isomer, unassigned) [Compound 76d]
EC50 (KB cells; 2 h): 0.339 µM

EC50 (KB cells; Table 1, non-targeted PDT agents, free drugs in DMSO, 2 h incubation, laser 6 mW/cm^2, 12 J/cm^2, 32 min, then 24 h): Not active
Structure (SMILES): Oc1cccc(-c2c3nc(c(-c4cccc(O)c4)c4ccc([nH]4)c(-c4cccc(O)c4)c4nc(c(-c5cccc(O)c5)c5ccc2[nH]5)CC4)C=C3)c1 [Compound 6, Foscan, reference compound]

EC50 (KB cells; [1]): 0.0231 µM
Structure (SMILES): CC[C@H]1c2cc3[nH]c4c(c3C)C(=O)C(C(=O)OC)c4c3nc(cc4[nH]c(cc(n2)[C@@H]1C)c(C(C)=O)c4C)[C@@H](C)[C@@H]3CCC(=O)NCCC[C@@H](C(=O)OC(C)(C)C)[N+](C)(C)C (stereo partly drawn) [Compound 11b]

EC50 (KB cells; [1]): 0.0154 µM
Structure (SMILES): CC[C@H]1c2cc3[nH]c4c(c3C)C(=O)C(C(=O)OC)c4c3nc(cc4[nH]c(cc(n2)[C@@H]1C)c(C(C)=O)c4C)[C@@H](C)[C@@H]3CCC(=O)NCCC[C@@H](C(=O)O)[N+](C)(C)C (stereo partly drawn) [Compound 12b]

EC50 (KB cells; [1]): 0.55 µM
Structure (SMILES): CC[C@H]1c2cc3[nH]c4c(c3C)C(=O)C(C(=O)OC)c4c3nc(cc4[nH]c(cc(n2)[C@@H]1C)c(C(C)=O)c4C)[C@@H](C)[C@@H]3CCC(=O)N[C@@H](CCC(=O)NC1C(O)OC(CO)C(O)C1O)C(=O)O (stereo partly drawn) [Compound 19]

IC50 (KB cells; [2]): Not active*
Structure (SMILES): CC[C@H]1C2=Cc3c(C)c(C(=O)NNC(=O)Nc4cccc(S(=O)(=O)O)c4)c4[n]3[Pd][n]3c(c(C)c(C(C)=O)c3=CC(=N2)[C@@H]1C)=CC1=NC(=C4CC(=O)OC)[C@@H](CCC(=O)O)[C@@H]1C [Compound 39]

IC50 (KB cells; [2]): 4.08 µM
Structure (SMILES): CC[C@H]1c2cc3[nH]c4c(c3C)C(=O)C(C(=O)OC)c4c3nc(cc4[nH]c(cc(n2)[C@@H]1C)c(C(C)=O)c4C)[C@@H](C)[C@@H]3CCC(=O)N[C@@H](CC(=O)NCCS(=O)(=O)O)C(=O)O (stereo partly drawn) [Compound 40]

Structure (SMILES): CC[C@H]1c2cc3[nH]c4c(c3C)C(=O)C(C(=O)OC)c4c3nc(cc4[nH]c(cc(n2)[C@@H]1C)c(C(C)=O)c4C)[C@@H](C)[C@@H]3CCC(=O)NC(Cc1ccc(N(CCCl)CCCl)cc1)C(=O)O (stereo partly drawn) [Compound 41]
IC50 (KB cells; [2]): 0.068 µM

Structure (SMILES): CC[C@H]1c2cc3[nH]c4c(c3C)C(=O)C(C(=O)OC)c4c3nc(cc4[nH]c(cc(n2)[C@@H]1C)c(C(C)=O)c4C)[C@@H](C)[C@@H]3CCC(=O)NCCSSC[C@H](NC(=O)[C@H](CC(=O)NCCS(=O)(=O)O)NC(=O)CC[C@H](NC(=O)c1ccc(NCc2cnc3nc(N)[nH]c(=O)c3n2)cc1)C(=O)O)C(=O)O (stereo partly drawn) [Compound 64]
Effect on growth of subcutaneous KB tumor, in words (subcutaneous KB tumor): completely cure the tumor and showed tumor regression for 2 weeks

Structure (SMILES): CC[C@H]1c2cc3[nH]c4c(c3C)C(=O)C(C(=O)OC)c4c3nc(cc4[nH]c(cc(n2)[C@@H]1C)c(C(C)=O)c4C)[C@@H](C)[C@@H]3CCC(=O)NCCNC(=O)OCCSSC[C@H](NC(=O)[C@H](CC(=O)NCCS(=O)(=O)O)NC(=O)CC[C@H](NC(=O)c1ccc(NCc2cnc3nc(N)[nH]c(=O)c3n2)cc1)C(=O)O)C(=O)O (stereo partly drawn) [Compound 65c]
EC50 (KB cells; 2 h): 0.0116 µM

Structure (SMILES): C=CC1=C(C)c2cc3[nH]c(cc4nc(cc5[nH]c(cc1n2)c(C)c5CCC(=O)OC)C(CCC(=O)NNC(=O)OCCSSCC(NC(=O)c1ccc(NCc2cnc5nc(N)[nH]c(=O)c5n2)cc1)C(=O)O)=C4C)[C@@]1(C)C3=CC=C(C(=O)OC)[C@H]1C(=O)OC (stereo partly drawn) [Compound 81]
Activity on KB cancer cells in culture, in words (KB cells): not active | EC50 (KB cells; [3]): Not active*

Structure (SMILES): C=CC1=C(C)c2cc3[nH]c(cc4nc(cc5[nH]c(cc1n2)c(C)c5CCC(=O)NNC(=O)OCCSSC[C@H](NC(=O)[C@H](CCCNC(=N)N)NC(=O)C[C@@H](NC(=O)[C@H](CCCNC(=N)N)NC(=O)CC[C@H](NC(=O)c1ccc(NCc2cnc5nc(N)[nH]c(=O)c5n2)cc1)C(=O)O)C(=O)O)C(=O)O)C(CCC(=O)OC)=C4C)[C@]1(C)C3=CC=C(C(=O)OC)[C@@H]1C(=O)OC [Compound 85]
Activity on KB cancer cells in culture, in words (KB cells): not active | EC50 (KB cells; [3]): Not active*

EC50 (KB cells; 2 h): 6.04 µM
Structure (SMILES): CC[C@H]1c2cc3[nH]c(c(CC(=O)OC)c4nc(cc5[nH]c(cc(n2)[C@@H]1C)c(C(C)=O)c5C)[C@@H](C)[C@@H]4CCC(=O)NNC(=O)OCCSSC[C@H](NC(=O)CCOCCOCCOCCOCCOCCOCCNC(=O)CC[C@H](NC(=O)c1ccc(NCc2cnc4nc(N)[nH]c(=O)c4n2)cc1)C(=O)O)C(=O)O)c(C(=O)N[N+](C)(C)C)c3C [Compound 87b]

EC50 (KB cells; 2 h): 0.0345 µM
Structure (SMILES): CC[C@H]1c2cc3[nH]c(c(CC(=O)OC)c4nc(cc5[nH]c(cc(n2)[C@@H]1C)c(C(C)=O)c5C)[C@@H](C)[C@@H]4CCC(=O)NNC(=O)OCCSSC[C@H](NC(=O)CCOCCOCCOCCOCCOCCOCCOCCOCCNC(=O)CC[C@H](NC(=O)c1ccc(NCc2cnc4nc(N)[nH]c(=O)c4n2)cc1)C(=O)O)C(=O)O)c(C(=O)NCCOCCOCCO)c3C [Compound 88a]
Activity class on KB cancer cells in culture (active / highly active) (KB cells): active

Structure (SMILES): CC[C@@H]1c2cc3[nH]c4c(c3C)C(=O)C(C(=O)OC)c4c3nc(cc4[nH]c(cc(n2)[C@H]1C)c(C(C)=O)c4C)[C@H](C)[C@H]3CCC(=O)NCCC[C@@H](C(=O)NNC(=O)OCCSSC[C@H](NC(=O)[C@H](CC(=O)NCCS(=O)(=O)O)NC(=O)CC[C@H](NC(=O)c1ccc(NCc2cnc3nc(N)[nH]c(=O)c3n2)cc1)C(=O)O)C(=O)O)[N+](C)(C)C (stereo partly drawn) [Compound 89a]
Effect on growth of subcutaneous KB tumor, in words (subcutaneous KB tumor): completely reduced the tumor | EC50 (KB cells; 2 h): 0.0037 µM

Structure (SMILES): CC[C@H]1c2cc3[nH]c4c(c3C)C(=O)C(C(=O)OC)c4c3nc(cc4[nH]c(cc(n2)[C@@H]1C)c(C(C)=O)c4C)[C@@H](C)[C@@H]3CCC(=O)NC(CC(=O)NC1C(O)OC(CO)C(O)C1O)C(=O)NNC(=O)OCCSSC[C@H](NC(=O)[C@H](CC(=O)NCCS(=O)(=O)O)NC(=O)CC[C@H](NC(=O)c1ccc(NCc2cnc3nc(N)[nH]c(=O)c3n2)cc1)C(=O)O)C(=O)O (stereo partly drawn) [Compound 92a]
Effect on growth of subcutaneous KB tumor, in words (subcutaneous KB tumor): completely reduced the tumor | Activity class on KB cancer cells in culture (active / highly active) (KB cells): active | EC50 (KB cells; 2 h): 0.0328 µM

Structure (SMILES): CC[C@H]1c2cc3[nH]c4c(c3C)C(=O)C(C(=O)OC)c4c3nc(cc4[nH]c(cc(n2)[C@@H]1C)c(C(C)=O)c4C)[C@@H](C)[C@@H]3CCC(=O)N[C@@H](CC(=O)N[N+](C)(C)C)C(=O)NNC(=O)OCCSSC[C@H](NC(=O)C[C@H](NC(=O)CC[C@H](NC(=O)c1ccc(NCc2cnc3nc(N)[nH]c(=O)c3n2)cc1)C(=O)O)C(=O)NCCS(=O)(=O)O)C(=O)O (stereo partly drawn) [Compound 95a]
EC50 (KB cells; 2 h): 0.166 µM

Structure (SMILES): CC[C@H]1c2cc3[nH]c4c(c3C)C(=O)C(C(=O)OC)c4c3nc(cc4[nH]c(cc(n2)[C@@H]1C)c(C(C)=O)c4C)[C@@H](C)[C@@H]3CCC(=O)NCCC[C@H](NC(=O)CC[P+](c1ccccc1)(c1ccccc1)c1ccccc1)C(=O)NCCSSC[C@H](NC(=O)[C@H](CC(=O)NCCS(=O)(=O)O)NC(=O)CC[C@H](NC(=O)c1ccc(NCc2cnc3nc(N)[nH]c(=O)c3n2)cc1)C(=O)O)C(=O)O (stereo partly drawn) [Compound 99]
EC50 (KB cells; 2 h): 0.0053 µM

EC50 (KB cells; 2 h): 0.159 µM
Structure (SMILES): CC[C@H]1c2cc3[nH]c(c(CC(=O)OC)c4nc(cc5[nH]c(cc(n2)[C@@H]1C)c(C(C)=O)c5C)[C@@H](C)[C@@H]4CCC(=O)NCCSSC[C@H](NC(=O)[C@H](CC(=O)NCCS(=O)(=O)O)NC(=O)CC[C@H](NC(=O)c1ccc(NCc2cnc4nc(N)[nH]c(=O)c4n2)cc1)C(=O)O)C(=O)O)c(C(=O)N[N+](C)(C)C)c3C [Compound 101]

Structure (SMILES): CC[C@H]1c2cc3[nH]c4c(c3C)C(=O)C(C(=O)OC)c4c3nc(cc4[nH]c(cc(n2)[C@@H]1C)c(C(C)=O)c4C)[C@@H](C)[C@@H]3CCC(=O)NCCSSC[C@H](NC(=O)[C@H](CC(=O)NCCS(=O)(=O)O)NC(=O)[C@H](CC(=O)NCCS(=O)(=O)O)NC(=O)CC[C@H](NC(=O)c1ccc(NCc2cnc3nc(N)[nH]c(=O)c3n2)cc1)C(=O)O)C(=O)O (stereo partly drawn) [Compound 105]
EC50 (KB cells; 2 h): 0.0453 µM

Structure (SMILES): CC[C@H]1c2cc3[nH]c4c(c3C)C(=O)C(C(=O)OC)c4c3nc(cc4[nH]c(cc(n2)[C@@H]1C)c(C(C)=O)c4C)[C@@H](C)[C@@H]3CCC(=O)NCCCC(NC(=O)c1ccc(N(C)Cc2cnc3nc(N)nc(N)c3n2)cc1)C(=O)NNC(=O)OCCSSC[C@H](NC(=O)[C@H](CC(=O)NCCS(=O)(=O)O)NC(=O)CC[C@H](NC(=O)c1ccc(NCc2cnc3nc(N)[nH]c(=O)c3n2)cc1)C(=O)O)C(=O)O (stereo partly drawn) [Compound 117]
EC50 (KB cells; 2 h): 2.85 µM

Structure (SMILES): CC[C@H]1c2cc3[nH]c4c(c3C)C(=O)C(C(=O)OC)c4c3nc(cc4[nH]c(cc(n2)[C@@H]1C)c(C(C)=O)c4C)[C@@H](C)[C@@H]3CCC(=O)N[C@@H](CCC(=O)NCCS(=O)(=O)O)C(=O)NCCNC(=O)OCCSSC[C@H](NC(=O)[C@H](CC(=O)NCCS(=O)(=O)O)NC(=O)CC[C@H](NC(=O)c1ccc(NCc2cnc3nc(N)[nH]c(=O)c3n2)cc1)C(=O)O)C(=O)O (stereo partly drawn) [Compound 119]
EC50 (KB cells; 2 h): 0.538 µM
